According to US10689377B2 (Mirati Therapeutics, Inc., priority 2017, dated 2020):

Biological target: KRas G12C (Homo sapiens, UniProt P01116, G12C)
Assay: Cellular inhibition of KRas G12C measured by Phospho-ERK in NCI-H358 cells
Type: cell-based
Conditions: pERK(Thr202/Tyr204) normalized with GAPDH, NCI-H358 cells, 3 hours; read-out: IC50
Summary of the method: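 NCI-H358 cells were allowed to attach for 8-12 hours, then exposed to compounds for 3 hours at 0.5% DMSO final. After formaldehyde fixation and methanol permeabilization, phospho-ERK (Thr202/Tyr204) was detected by in-cell immunofluorescence and normalized to GAPDH; IC50 came from a 4-parameter fit of percent-of-DMSO values.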

KRas G12C, sequence (P01116 1-188 isoform P01116-2 G12C): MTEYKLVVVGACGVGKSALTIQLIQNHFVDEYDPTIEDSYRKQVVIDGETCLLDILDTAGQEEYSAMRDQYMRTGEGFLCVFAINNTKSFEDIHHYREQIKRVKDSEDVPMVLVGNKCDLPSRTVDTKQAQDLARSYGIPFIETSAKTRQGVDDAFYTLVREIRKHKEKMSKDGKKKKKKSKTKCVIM

Compared with `C=CC(=O)N1CCN(c2nc(OC[C@@H]3CCCN3C)nc3c2CCN(c2cccc4ncccc24)C3)CC1CC#N` (stereo partly drawn) [Example 264, 2-[4-[2-[[(2S)-1-methylpyrrolidin-2-yl]methoxy]-7-(5-quinolyl)-6,8-dihydro-5H-pyrido[3,4-d]pyrimidin-4-yl]-1-prop-2-enoyl-piperazin-2-yl]acetonitrile], `C=CC(=O)N1CCN(c2nc(OC[C@@H]3CCCN3C)nc3c2CCN(c2ccnc4ccccc24)C3)CC1CC#N` (stereo partly drawn) [Example 278, 2-(1-acryloyl-4-(2-(((S)-1-methylpyrrolidin-2-yl)methoxy)-7-(quinolin-4-yl)-5,6,7,8-tetrahydropyrido[3,4-d]pyrimidin-4-yl)piperazin-2-yl)acetonitrile] is lower in IC50: greater than 1000 nM for the first, 0.1 to 1000 nM for the second.

`C=CC(=O)N1CCN(c2nc(OC[C@@H]3CCCN3C)nc3c2CCN(c2cccc(C)c2C(F)(F)F)C3)CC1CC#N` (some centres unmarked) [Example 265] and `C=CC(=O)N1CCN(c2nc(OC[C@H]3CCCN3C)nc3c2CCN(c2cccc(F)c2C(F)(F)F)C3)C[C@@H]1CC#N` [Example 274, 2-((S)-1-acryloyl-4-(7-(3-fluoro-2-(trifluoromethyl)phenyl)-2-(((R)-1-methylpyrrolidin-2-yl)methoxy)-5,6,7,8-tetrahydropyrido[3,4-d]pyrimidin-4-yl)piperazin-2-yl)acetonitrile] fall in the same range of IC50: 0.1 to 1000 nM for the first, 0.1 to 1000 nM for the second.

`C=CC(=O)N1CCN(c2nc(OC[C@@H]3CCCN3CCOC)nc3c2CCN(c2cccc4ccccc24)C3)CC1CC#N` (stereo partly drawn) [Example 266, 2-(1-acryloyl-4-(2-(((S)-1-(2-methoxyethyl)pyrrolidin-2-yl)methoxy)-7-(naphthalen-1-yl)-5,6,7,8-tetrahydropyrido[3,4-d]pyrimidin-4-yl)piperazin-2-yl)acetonitrile] and `C=CC(=O)N1CCN(c2nc(OC[C@@H]3COCCN3C)nc3c2CCN(c2cccc4ccccc24)C3)CC1CC#N` (stereo partly drawn) [Example 272, 2-(1-acryloyl-4-(2-(((S)-4-methylmorpholin-3-yl)methoxy)-7-(naphthalen-1-yl)-5,6,7,8-tetrahydropyrido[3,4-d]pyrimidin-4-yl)piperazin-2-yl)acetonitrile] fall in the same range of IC50: 0.1 to 1000 nM for the first, 0.1 to 1000 nM for the second.

First: C=CC(=O)N1CCN(c2nc(OC[C@@H]3C[C@@H](OC)CN3C)nc3c2CCN(c2cccc4ccccc24)C3)CC1CC#N (stereo partly drawn) [Example 268, 2-(1-acryloyl-4-(2-(((2S,4R)-4-methoxy-1-methylpyrrolidin-2-yl)methoxy)-7-(naphthalen-1-yl)-5,6,7,8-tetrahydropyrido[3,4-d]pyrimidin-4-yl)piperazin-2-yl)acetonitrile]
Second: C=CC(=O)N1CCN(c2nc(OC[C@H]3COCCN3C)nc3c2CCN(c2cccc4ccccc24)C3)CC1CC#N (stereo partly drawn) [Example 273, 2-(1-acryloyl-4-(2-(((R)-4-methylmorpholin-3-yl)methoxy)-7-(naphthalen-1-yl)-5,6,7,8-tetrahydropyrido[3,4-d]pyrimidin-4-yl)piperazin-2-yl)acetonitrile]
The IC50 of the first is lower: 0.1 to 1000 nM for the first, greater than 1000 nM for the second.

`C=CC(=O)N1CCN(c2nc(OCC(C)(C)N(C)C)nc3c2CCN(c2cccc4ccccc24)C3)CC1CC#N` (centres unmarked) [Example 269, 2-(1-acryloyl-4-(2-(2-(dimethylamino)-2-methylpropoxy)-7-(naphthalen-1-yl)-5,6,7,8-tetrahydropyrido[3,4-d]pyrimidin-4-yl)piperazin-2-yl)acetonitrile] and `C=CC(=O)N1CCN(c2nc(OC[C@H]3CN(C)CCO3)nc3c2CCN(c2cccc4ccccc24)C3)CC1CC#N` (stereo partly drawn) [Example 270, 2-(1-acryloyl-4-(2-(((R)-4-methylmorpholin-2-yl)methoxy)-7-(naphthalen-1-yl)-5,6,7,8-tetrahydropyrido[3,4-d]pyrimidin-4-yl)piperazin-2-yl)acetonitrile] fall in the same range of IC50: 0.1 to 1000 nM for the first, 0.1 to 1000 nM for the second.

Compared with `C=CC(=O)N1CCN(c2nc(OC[C@@H]3CN(C)CCO3)nc3c2CCN(c2cccc4ccccc24)C3)CC1CC#N` (stereo partly drawn) [Example 271, 2-(1-acryloyl-4-(2-(((S)-4-methylmorpholin-2-yl)methoxy)-7-(naphthalen-1-yl)-5,6,7,8-tetrahydropyrido[3,4-d]pyrimidin-4-yl)piperazin-2-yl)acetonitrile], `CC(C)=CC(=O)N1CCN(c2nc(OC[C@@H]3CCCN3C)nc3c2CCN(c2cccc4ccccc24)C3)CC1CC#N` (stereo partly drawn) [Example 282, 2-(1-(3-methylbut-2-enoyl)-4-(2-(((S)-1-methylpyrrolidin-2-yl)methoxy)-7-(naphthalen-1-yl)-5,6,7,8-tetrahydropyrido[3,4-d]pyrimidin-4-yl)piperazin-2-yl)acetonitrile] is higher in IC50: 0.1 to 1000 nM for the first, greater than 1000 nM for the second. The first is the more potent here.

`C=CC(=O)N1CCN(c2nc(OC[C@@H]3CCCN3C)nc3c2CCN(c2c(F)cccc2C(F)(F)F)C3)CC1CC#N` (some centres unmarked) [Example 275] and `C=CC(=O)N1CCN(c2nc(OC[C@@H]3CCCN3C)nc3c2CCN(c2ccc(F)cc2C(F)(F)F)C3)CC1CC#N` (some centres unmarked) [Example 276] fall in the same range of IC50: 0.1 to 1000 nM for the first, 0.1 to 1000 nM for the second.

`C=CC(=O)N1CCN(c2nc(OC[C@@H]3CCCN3C)nc3c2CCN(c2cccc(Cl)c2C(F)(F)F)C3)CC1CC#N` (stereo partly drawn) [Example 277, 2-(1-acryloyl-4-(7-(3-chloro-2-(trifluoromethyl)phenyl)-2-(((S)-1-methylpyrrolidin-2-yl)methoxy)-5,6,7,8-tetrahydropyrido [3,4-d]pyrimidin-4-yl)piperazin-2-yl)acetonitrile] and `C=CC(=O)N1CCN(c2nc(OC[C@H]3CCCN3C)nc3c2CCN(c2ccccc2C(F)(F)F)C3)CC1CC#N` (stereo partly drawn) [Example 283, 2-(1-acryloyl-4-(2-(((R)-1-methylpyrrolidin-2-yl)methoxy)-7-(2-(trifluoromethyl)phenyl)-5,6,7,8-tetrahydropyrido[3,4-d]pyrimidin-4-yl)piperazin-2-yl)acetonitrile] fall in the same range of IC50: 0.1 to 1000 nM for the first, 0.1 to 1000 nM for the second.

`C=CC(=O)N1CCN(c2nc(OCCN(C)C)nc3c2CCN(c2ccccc2C(F)(F)F)C3)CC1CC#N` (centres unmarked) [Example 279, 2-(1-acryloyl-4-(2-(2-(dimethylamino)ethoxy)-7-(2-(trifluoromethyl)phenyl)-5,6,7,8-tetrahydropyrido[3,4-d]pyrimidin-4-yl)piperazin-2-yl)acetonitrile] and `C=CC(=O)N1CCN(c2nc(OCCN(CC)CC)nc3c2CCN(c2ccccc2C(F)(F)F)C3)CC1CC#N` (centres unmarked) [Example 284, 2-(1-acryloyl-4-(2-(2-(diethylamino)ethoxy)-7-(2-(trifluoromethyl)phenyl)-5,6,7,8-tetrahydropyrido[3,4-d]pyrimidin-4-yl)piperazin-2-yl)acetonitrile] fall in the same range of IC50: 0.1 to 1000 nM for the first, 0.1 to 1000 nM for the second.

`C=CC(=O)N1CCN(c2nc(OCCCN3C[C@H]4C[C@@H]3CO4)nc3c2CCN(c2ccccc2C(F)(F)F)C3)CC1CC#N` (stereo partly drawn) [Example 280, 2-(4-(2-(3-((1R,4R)-2-oxa-5-azabicyclo[2.2.1]heptan-5-yl)propoxy)-7-(2-(trifluoromethyl)phenyl)-5,6,7,8-tetrahydropyrido [3,4-d]pyrimidin-4-yl)-1-acryloylpiperazin-2-yl)acetonitrile] and `C=CC(=O)N1CCN(c2nc(OC[C@@H]3CCN(C)C3)nc3c2CCN(c2ccccc2C(F)(F)F)C3)CC1CC#N` (stereo partly drawn) [Example 281, 2-(1-acryloyl-4-(2-(((R)-1-methylpyrrolidin-3-yl)methoxy)-7-(2-(trifluoromethyl)phenyl)-5,6,7,8-tetrahydropyrido[3,4-d]pyrimidin-4-yl)piperazin-2-yl)acetonitrile] fall in the same range of IC50: 0.1 to 1000 nM for the first, 0.1 to 1000 nM for the second.
